Assays:
[1] = tested on: Escherichia coli 205; experiment: chemotherapeutic efficacy in vivo against systemic infection in mice (method of Zak et al.); conditions: systemic infection in female SPF, MF2 mice
Text: (§1) B. Die chemotherapeutische Wirksamkeit in vivo gegen systemische Infektionen in weiblichen SPF, MF2 Mäusen wurde nach der Methode von Zak, 0. et al., 1979, Drugs Exptl. Clin. Res. 5, 45-59, ermittelt. Die gefundenen EDS50-Werte in Milligramm Substanz pro Kilogramm Maus (mg/kg) für eine Anzahl von Mikroorganismen werden für die oral (p.o.) oder subcutan (s.c.) applizierten, Testverbindungen in der Tabelle 2 angegeben.

[2] = tested on: Staphylococcus aureus 10 B; experiment: as above; conditions: systemic infection in female SPF, MF2 mice; for ED50 Staphylococcus aureus 10 B: s.c.; for ED50: Staphylococcus aureus, 10B
Text: as §1

[3] = Escherichia coli, 205, po, p.o.
[4] = Escherichia coli, 205, sc, s.c.

SMILES | ED50 Escherichia coli 205 ([1]; p.o.) | ED50 Escherichia coli 205 ([1]; s.c.) | ED50 Staphylococcus aureus 10 B [2] | ED50 [1, 3] | ED50 [1, 4] | ED50 ([2]; sc) | ED50 ([2]; po)
CN(C)CCn1nnnc1SCC1=C(C(=O)O)N2C(=O)[C@@H](NC(=O)C(NS(=O)(=O)CCN)c3csc(N)n3)[C@H]2SC1 (stereo partly drawn) [Beispiel 20, 3-[1-(2-Dimethylaminoäthyl)-1H-tetrazol-5-ylthiomethyl]-7ß-[(2R,S)-2-(2-aminoäthansulfonylamino)-2-(2-aminothiazol-4-yl)-acetamido]-3-cephem-4-carbonsäure] | 8 mg/kg | 0,8 mg/kg | >30 mg/kg |  |  |  | 
NCCS(=O)(=O)NC(C(=O)N[C@@H]1C(=O)N2C(C(=O)[O-])=C(CSc3nnnn3CC(=O)O)CS[C@H]12)c1csc(N)n1.[Na+] (stereo partly drawn) [Testverbindung 5, 3-(1-Carboxymethyl-1H-tetrazol-5-ylthiomethyl)-7ß-[(2R,S)-2-(2-aminoäthansulfonylamino)-2-(2-aminothiazol-4-yl)-acetamido]-3-cephem-4-carbonsäure-natriumsalz] | 2 mg/kg | 0,45 mg/kg | 78 mg/kg |  |  |  | 
NCCS(=O)(=O)NC(C(=O)N[C@@H]1C(=O)N2C(C(=O)[O-])=C(CSc3nnnn3CS(=O)(=O)O)CS[C@H]12)c1csc(N)n1.[Na+] (stereo partly drawn) [Testverbindung 6, 3-(1-Sulfomethyl-1H-tetrazol-5-ylthiomethyl)-7ß-[(2R,S)-2-(2-aminoäthansulfonylamino)-2-(2-aminothiazol-4-yl)-acetamido]-3-cephem-4-carbonsäurematriumsalz] | 10 mg/kg | 6,0 mg/kg | >30 mg/kg |  |  |  | 
CS(=O)(=O)NC(C(=O)N[C@@H]1C(=O)N2C(C(=O)[O-])=C(C[n+]3ccc(C(N)=O)cc3)CS[C@H]12)c1csc(N)n1 (stereo partly drawn) [Testverbindung 9, 3-(4-Carbamoylpyridiniomethyl)-7ß-[(2R,S)-2-(2-aminothiazol-4-yl)-2-methansulfonylaminoacetamido]-3-cephem-4-carbonsäure] |  | 25 mg/kg | 55 mg/kg |  |  |  | 
CC(=O)OCC1=C(C(=O)O)N2C(=O)[C@@H](NC(=O)C(NS(=O)(=O)CCNC=O)c3csc(N)n3)[C@H]2SC1 (stereo partly drawn) [Testverbindung 39] |  |  |  | 5.5 mg/kg | 0.8 mg/kg | 10 mg/kg | 
CS(=O)(=O)N[C@H](C(=O)N[C@@H]1C(=O)N2C(C(=O)O)=C(COC(N)=O)CS[C@H]12)c1csc(N)n1 [Testverbindung 40] |  |  |  | 0.9 mg/kg | 0.1 mg/kg | 3 mg/kg | 
C=CC(=O)NCCS(=O)(=O)NC(C(=O)N[C@@H]1C(=O)N2C(C(=O)O)=C(CSc3nnnn3C)CS[C@H]12)c1csc(N)n1 (stereo partly drawn) [Testverbindung 41] |  |  |  | 10 mg/kg | 2 mg/kg | 24 mg/kg | 
C=CC(=O)NCCS(=O)(=O)N[C@H](C(=O)N[C@@H]1C(=O)N2C(C(=O)O)=C(COC(N)=O)CS[C@H]12)c1csc(N)n1 [Testverbindung 42] |  |  |  | 2.5 mg/kg | 0.1 mg/kg | 15 mg/kg | 
CC(=O)NCCS(=O)(=O)NC(C(=O)N[C@@H]1C(=O)N2C(C(=O)O)=C(CSc3nnnn3C)CS[C@H]12)c1csc(N)n1 (stereo partly drawn) [Testverbindung 43] |  |  |  | 8 mg/kg | 1 mg/kg | 50 mg/kg | 
CS(=O)(=O)NC(C(=O)N[C@@H]1C(=O)N2C(C(=O)O)=C(CSc3nnnn3CS(=O)(=O)O)CS[C@H]12)c1csc(N)n1 (stereo partly drawn) [Testverbindung 44] |  |  |  |  | < 1 mg/kg | 85 mg/kg | 
CS(=O)(=O)NCCS(=O)(=O)NC(C(=O)N[C@@H]1C(=O)N2C(C(=O)O)=C(COC(N)=O)CS[C@H]12)c1csc(N)n1 (stereo partly drawn) [Testverbindung 45] |  |  |  |  |  | 55 mg/kg | 90 mg/kg
NC(=O)OCC1=C(C(=O)O)N2C(=O)C(NC(=O)C(NS(=O)(=O)CCNS(=O)(=O)c3ccc(N)cc3)c3csc(N)n3)C2SC1 (stereo not drawn) [Testverbindung 46] |  |  |  |  | < 1 mg/kg | 9 mg/kg | 
CC(=O)OCC1=C(C(=O)O)N2C(=O)[C@@H](NC(=O)C(NS(=O)(=O)CCNS(=O)(=O)c3ccc(N)cc3)c3csc(N)n3)[C@H]2SC1 (stereo partly drawn) [Testverbindung 47] |  |  |  | > 30 mg/kg | 2.8 mg/kg | 5 mg/kg | 100 mg/kg
